Among the data in PubChem BioAssay (NCI) are TGI and GI50 values, retold here.

Test systems include CCRF-CEM leukemia; SK-MEL-2 melanoma; RPMI-8226 leukemia; SW-620 colon; K-562 leukemia; SNB-19 CNS; M14 melanoma; ACHN renal; HS 578T breast.
Common to all, as to assay: NCI tumour cell line growth inhibition, 48 h

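Grown in 96-well plates, cells were treated for 48 hours with each compound at five concentrations. Insufficient inhibition: endpoint recorded as highest concentration tested. Abbreviation: GI50, concentration required for 50% inhibition of growth. The concentration for full growth arrest is given as TGI.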

For the compound `C#CCn1c(=O)c(C#N)c(O)c2cc3ccccc3nc21`, the TGI in the assay with CCRF-CEM leukemia, in the assay on SK-MEL-2 melanoma, in the assay with RPMI-8226 leukemia, in the assay with SW-620 colon, with K-562 leukemia and in the assay on SNB-19 CNS was over 100 µM throughout.
`CC1(Cl)CC2C(CC1Sc1nnnn1-c1ccccc1)C2(C)C` (centres undefined): the TGI with CCRF-CEM leukemia, with SK-MEL-2 melanoma, in the assay on RPMI-8226 leukemia, in the assay with SW-620 colon, in the assay on K-562 leukemia and in the assay with M14 melanoma was over 100 µM in each case. Moreover, the TGI in the assay on SNB-19 CNS and with ACHN renal was over 100 µM throughout.
Take `C[C@]12CC[C@H](O)CC1=CC[C@@H]1[C@@H]2CC[C@]2(C)/C(=N/OCCN3CCCC3)CC[C@@H]12`: the TGI with SK-MEL-2 melanoma was 45.1 µM; in the assay with RPMI-8226 leukemia, 38.4 µM; with SW-620 colon, 31.1 µM; in the assay on K-562 leukemia it was 21.6 µM; in the assay on SNB-19 CNS, 72.1 µM; in the assay with ACHN renal it was 68.2 µM. In the assay on HS 578T breast, this compound came in with a TGI of 83.8 µM.
With `Nc1cc(N2CCCC2)nc(=O)n1Cc1ccccc1`, the TGI in the assay on CCRF-CEM leukemia, with SK-MEL-2 melanoma, in the assay with RPMI-8226 leukemia, with SW-620 colon, in the assay with K-562 leukemia and in the assay on M14 melanoma was over 100 µM throughout. Also, the TGI with SNB-19 CNS and in the assay on ACHN renal was over 100 µM throughout.
Turning to `COc1cc2c(cc1OC)-c1c3c(cc4c1[C@@H](C2)N(C)CC4)OCO3`, the TGI in the assay with CCRF-CEM leukemia amounted to 39.4 µM; in the assay on SK-MEL-2 melanoma, 22 µM; in the assay on RPMI-8226 leukemia, 22.8 µM; with SW-620 colon it was 30.3 µM; in the assay with K-562 leukemia it was 33.9 µM; in the assay with SNB-19 CNS, 59.9 µM.
Consider `O=C(CNc1ccc(Cl)cc1Cl)NC1C=Cc2ccc(S(=O)(=O)Nc3ccc(Cl)cc3Cl)cc2C1=O` (centres undefined), for which the TGI with CCRF-CEM leukemia, in the assay with SK-MEL-2 melanoma, in the assay with RPMI-8226 leukemia, with SW-620 colon, with K-562 leukemia and in the assay with M14 melanoma was over 100 µM each time. Further, the TGI with SNB-19 CNS, with ACHN renal and in the assay with HS 578T breast was over 100 µM each time.
Turning to `CCCCOCn1c(=O)[nH]c(=O)c2cc(Br)ccc21`, the TGI in the assay with CCRF-CEM leukemia, with SK-MEL-2 melanoma, in the assay on SW-620 colon, in the assay with K-562 leukemia, in the assay on M14 melanoma and with SNB-19 CNS was over 100 µM in each case. The TGI in the assay on ACHN renal worked out at 42.1 µM.
Regarding `NCCCCNCCCNC(=O)c1nc(-c2csc(CCN)n2)sc1Cl`, the TGI with CCRF-CEM leukemia, in the assay with SK-MEL-2 melanoma, with RPMI-8226 leukemia, in the assay with SW-620 colon, in the assay on K-562 leukemia and in the assay with M14 melanoma was over 100 µM each time. Moreover, the TGI with SNB-19 CNS and in the assay on ACHN renal was over 100 µM in each case.
As for `COC(=O)[C@@]12CCCC(=O)[C@@H]1[C@H]1CCCC[C@H]12`, the TGI in the assay with CCRF-CEM leukemia, with SK-MEL-2 melanoma, with RPMI-8226 leukemia, in the assay on SW-620 colon, in the assay with K-562 leukemia and in the assay with M14 melanoma was over 100 µM in each case. Further, the TGI in the assay on SNB-19 CNS and in the assay on ACHN renal was over 100 µM in each case.
As to `COc1ccc(C(=O)N2c3ccccc3Sc3ccccc32)c(C(F)(F)F)c1`, the GI50 is 0.0879 µM with CCRF-CEM leukemia; 0.677 µM with SK-MEL-2 melanoma; 0.595 µM with RPMI-8226 leukemia; 0.425 µM in the assay with SW-620 colon; 0.349 µM with K-562 leukemia; 0.343 µM with M14 melanoma. Moreover, the results for the GI50 in the assay on ACHN renal and in the assay on HS 578T breast were 1.33 µM and 0.472 µM, respectively. For the same compound, the TGI with CCRF-CEM leukemia, in the assay with SK-MEL-2 melanoma, in the assay on RPMI-8226 leukemia, in the assay with SW-620 colon, in the assay with K-562 leukemia and in the assay with M14 melanoma was over 100 µM throughout. Further, the TGI in the assay with ACHN renal and with HS 578T breast was over 100 µM each time.
Regarding `O=c1[nH]nc(Cc2ccccc2)n1-n1cnnc1`, the TGI with CCRF-CEM leukemia, with SK-MEL-2 melanoma, in the assay with RPMI-8226 leukemia, with SW-620 colon, in the assay on K-562 leukemia and in the assay on M14 melanoma was over 100 µM each time. Further, the TGI with SNB-19 CNS and in the assay on ACHN renal was over 100 µM in each case.
Regarding `O=C(NCCCNCCNC(=O)c1cc(-c2ccccc2)nc2ccccc12)c1cc(-c2ccccc2)nc2ccccc12`, the TGI came out at 3.42 µM in the assay with CCRF-CEM leukemia; 3.09 µM in the assay with SW-620 colon; 4.45 µM with K-562 leukemia; 3.95 µM in the assay with M14 melanoma; 3.93 µM in the assay with SNB-19 CNS; 3.3 µM in the assay on ACHN renal. For the same compound, the TGI with HS 578T breast turned out to be 4.5 µM.
`CC(=O)Oc1ccc(C2COc3cc(OC(C)=O)c(OC(C)=O)cc3C2)cc1` (centres undefined): the TGI was 58.1 µM with CCRF-CEM leukemia; 41.5 µM in the assay on SK-MEL-2 melanoma; 58.8 µM with RPMI-8226 leukemia; 35.9 µM in the assay with SW-620 colon; 51.7 µM in the assay on K-562 leukemia; over 100 µM in the assay with SNB-19 CNS.
